Measured values as given in patent US20040254213A1, “Use of bicyclo compounds for treating alzheimer's disease” (priority 2001, published 2004).

Row | SMILES | melting point
1 | O=C1CC2(Cc3ccccc3)CN(Cc3ccccc3)CC([C@@H](O)Cc3ccccc3)(C1)C2O (mixture of isomers) [Compound 18, 5(RS)-methylpheny-9(RS)-hydroxy-1(RS)-((1′-hydroxy)-2′-phenyl)-ethyl-3-benzyl-3-azabicyclo[3.3.1]nonan-7-one] | 145.5 to 147 °C
2 | CC(C)CN1CC2(Cc3ccccc3)CC(=O)CC([C@@H](O)Cc3ccccc3N)(C1)C2O (mixture of isomers) [Compound 20] | 164 to 165 °C
3 | CC(C)CN1CC2(Cc3ccccc3)CC(=O)CC(C(O)Cc3ccccc3)(C1)C2O (racemic) [Compound 16, 5(RS)-methylphenyl-9(RS)-hydroxy-1(RS)-((1′-hydroxy)-2′-phenyl)-ethyl-3-(2″-methyl)propyl-3-azabicyclo[3.3.1] nonan-7-one] | 138 to 141 °C
